Several values for one entry are separate records, joined by “and”; a condition that tells them apart may be missing. Identical values can stand only once. Inconclusive results and toxic doses are left out.
Tested on: P388 leukemia ip, CD2F1 mice, survival T/C
Test: NCI In Vivo Anticancer Drug Screen. Data for tumor model P388 Leukemia (intraperitoneal) in CD2F1 (CDF1) mice
Details: endpoint: median survival time, higher = longer survival
Method in brief: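 Mice carrying the transplanted tumor received test compound or vehicle. Survival was recorded in each group, and the value is the treated-group measurement divided by that of the vehicle-treated control group.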

[1] = dose: 100.0 mg/kg/injection, schedule: Q01DX001 (ip), vehicle: Klucel (hydroxypropylcellulose) (HPC)

SMILES: CC(=O)O[C@H]1C2c3c(ccc4c(=O)cc(-c5ccccc5)oc34)OC2OC1(C)C (some centres undefined)
- T/C (dose: 0.4 mg/kg/injection, schedule: Q01DX005 (ip), vehicle: Klucel (hydroxypropylcellulose) (HPC)): 97 % of control
- T/C (dose: 0.8 mg/kg/injection, schedule: Q01DX005 (ip), vehicle: Klucel (hydroxypropylcellulose) (HPC)): 92 % of control
- T/C (dose: 1.6 mg/kg/injection, schedule: Q01DX005 (ip), vehicle: Klucel (hydroxypropylcellulose) (HPC)): 97 % of control
- T/C (dose: 3.2 mg/kg/injection, schedule: Q01DX005 (ip), vehicle: Klucel (hydroxypropylcellulose) (HPC)): 98 % of control

SMILES: Cc1ccc(S(=O)(=O)NCC(CNS(=O)(=O)c2ccc(C)cc2)C(C)(C)C)cc1
- T/C [1]: 93 % of control
- T/C (dose: 200.0 mg/kg/injection, schedule: Q01DX001 (ip), vehicle: Klucel (hydroxypropylcellulose) (HPC)): 93 % of control

SMILES: O=c1ccnc(Sc2ncccc2[N+](=O)[O-])[nH]1
- T/C (dose: 100.0 mg/kg/injection, schedule: Q04DX003 (ip), vehicle: saline with Tween-80): 100 % of control
- T/C (dose: 200.0 mg/kg/injection, schedule: Q04DX003 (ip), vehicle: saline with Tween-80): 100 % of control
- T/C (dose: 400.0 mg/kg/injection, schedule: Q04DX003 (ip), vehicle: saline with Tween-80): 100 % of control

SMILES: CCOC(=O)C1=C(C)OC(C)(/N=C(\C#N)C(=O)OC)C1c1ccccc1 (centres undefined)
- T/C (dose: 60.0 mg/kg/injection, schedule: Q01DX005 (ip), vehicle: saline with Tween-80): 93 % of control
- T/C (dose: 120.0 mg/kg/injection, schedule: Q01DX005 (ip), vehicle: saline with Tween-80): 95 % of control
- T/C (dose: 240.0 mg/kg/injection, schedule: Q01DX005 (ip), vehicle: saline with Tween-80): 98 % of control

SMILES: COc1cccc2c1C(=O)c1c(O)c3c(c(O)c1C2=O)C[C@@](O)(/C(CO)=N/NS(=O)(=O)c1ccc(C)cc1)C[C@@H]3OC1CC(N)C(O)C(C)O1 (some centres undefined)
- T/C (dose: 0.2 mg/kg/injection, schedule: Q01DX009 (ip), vehicle: water): 105 % of control
- T/C (dose: 0.39 mg/kg/injection, schedule: Q01DX009 (ip), vehicle: water): 112 % of control
- T/C (dose: 0.78 mg/kg/injection, schedule: Q01DX009 (ip), vehicle: water): 94 % of control
- T/C (dose: 1.56 mg/kg/injection, schedule: Q01DX009 (ip), vehicle: water): 116 % of control and 118 % of control

SMILES: CC/C(C)=N/SC(c1ccccc1)(c1ccccc1)c1ccccc1
- T/C (dose: 100.0 mg/kg/injection, schedule: Q04DX002 (ip), vehicle: saline with Tween-80): 101 % of control
- T/C (dose: 200.0 mg/kg/injection, schedule: Q04DX002 (ip), vehicle: saline with Tween-80): 91 % of control
- T/C (dose: 400.0 mg/kg/injection, schedule: Q04DX002 (ip), vehicle: saline with Tween-80): 89 % of control

SMILES: O=[N+]([O-])c1cccc(N/N=C\c2c(Cl)[nH]c3ccccc23)c1
- T/C (dose: 12.5 mg/kg/injection, schedule: Q01DX001 (ip), vehicle: Klucel (hydroxypropylcellulose) (HPC)): 102 % of control
- T/C (dose: 25.0 mg/kg/injection, schedule: Q01DX001 (ip), vehicle: Klucel (hydroxypropylcellulose) (HPC)): 93 % of control
- T/C (dose: 50.0 mg/kg/injection, schedule: Q01DX001 (ip), vehicle: Klucel (hydroxypropylcellulose) (HPC)): 89 % of control
- T/C [1]: 86 % of control

SMILES: CS(=O)(=O)N1OC1c1ccccc1 (centres undefined)
- T/C (dose: 60.0 mg/kg/injection, schedule: Q01DX005 (ip), vehicle: Klucel (hydroxypropylcellulose) (HPC)): 95 % of control
- T/C (dose: 120.0 mg/kg/injection, schedule: Q01DX005 (ip), vehicle: Klucel (hydroxypropylcellulose) (HPC)): 100 % of control

SMILES: NC(=O)c1csc(C2OC(CO)C(O)C2O)n1 (centres undefined)
- T/C (dose: 75.0 mg/kg/injection, schedule: Q01DX005 (ip), vehicle: saline): 158 % of control
- T/C (dose: 100.0 mg/kg/injection, schedule: Q01DX005 (ip), vehicle: saline): 155 % of control and 159 % of control and 161 % of control
- T/C (dose: 100.0 mg/kg/injection, schedule: Q01DX005 (ip), vehicle: water): 157 % of control
- T/C (dose: 150.0 mg/kg/injection, schedule: Q01DX005 (ip), vehicle: saline): 152 % of control and 158 % of control
- T/C (dose: 200.0 mg/kg/injection, schedule: Q01DX005 (ip), vehicle: saline): 173 % of control and 174 % of control and 178 % of control
- T/C (dose: 200.0 mg/kg/injection, schedule: Q01DX005 (ip), vehicle: water): 171 % of control
- T/C (dose: 300.0 mg/kg/injection, schedule: Q01DX005 (ip), vehicle: saline): 163 % of control and 177 % of control
- T/C (dose: 300.0 mg/kg/injection, schedule: Q01DX005 (ip), vehicle: water): 158 % of control
- T/C (dose: 300.0 mg/kg/injection, schedule: Q01DX009 (ip), vehicle: water): 193 % of control and 198 % of control
- T/C (dose: 400.0 mg/kg/injection, schedule: Q01DX005 (ip), vehicle: saline): 181 % of control and 187 % of control and 198 % of control
- T/C (dose: 400.0 mg/kg/injection, schedule: Q01DX005 (ip), vehicle: water): 164 % of control and 189 % of control
- T/C (dose: 400.0 mg/kg/injection, schedule: Q01DX009 (ip), vehicle: water): 201 % of control and 224 % of control
- T/C (dose: 600.0 mg/kg/injection, schedule: Q01DX005 (ip), vehicle: saline): 177 % of control
- T/C (dose: 600.0 mg/kg/injection, schedule: Q01DX005 (ip), vehicle: water): 169 % of control
- T/C (dose: 600.0 mg/kg/injection, schedule: Q01DX009 (ip), vehicle: water): 234 % of control and 237 % of control
- T/C (dose: 700.0 mg/kg/injection, schedule: Q01DX009 (ip), vehicle: water): 245 % of control and 86 % of control
- T/C (dose: 750.0 mg/kg/injection, schedule: Q01DX009 (ip), vehicle: water): 117 % of control
- T/C (dose: 800.0 mg/kg/injection, schedule: Q01DX005 (ip), vehicle: saline): 217 % of control
- T/C (dose: 800.0 mg/kg/injection, schedule: Q01DX009 (ip), vehicle: water): 99 % of control and 245 % of control

Reference: PubChem BioAssay AID330 (DTP/NCI, 2004)
